{"source": "patent US20090214500A1", "about": "“PREVENTION AND TREATMENT OF OSTEOCHONDROSIS IN ANIMALS AND HUMANS” (U.S. Borax Inc., priority 2005, published 2009)", "key": {"[1]": {"tested_on": "Duroc and Yorkshire pigs", "test": "Boron supplementation and OC-associated lameness in swine (Example 1)", "assay_type": "in vivo, pig", "method": "The basal diet consisted of commercial corn-soy diet containing 10 ppm boron.\nTest diet group B was fed a basal diet plus 25 mg/kg boron as sodium borate decahydrate (borax). Test diet group A was fed a basal diet plus 25 mg/kg boron as sodium borate decahydrate (borax) and 250 mg/kg ascorbic acid.\nPigs were weighed at the beginning of the study, 4 weeks later and every 3 weeks until the end of the study. Animals were scored for soundness on a 5-point scale at each weighing. (Five-point scale: 1=no soundness defects; 2=minor soundness issues but still sound enough for retention as breeding animal; 3=not sound enough for retention for breeding but still marketable; 4=unsound, likely to be rejected at slaughter; 5=severely lame, requiring euthanasia for humane reasons.) Grading was done by the caretaker and the investigator at all weighing times. An experienced independent treatment-blind rater also evaluated the soundness of each animal and the ratings he provided were compared with the ratings of the caretaker and investigator by use of Cohen's Kappa test.\nThe animals were housed in a modern curtain sided barn with deep straw bedding, with ad libitum access to feed and water. Waterers and feeders were on a concrete pad but the remainder of the flooring was deep straw over a ground limestone and sand base. Floor space allowances exceeded the recommendations of the Guide for the Care and Use of Agricultural Animals in Agricultural Research and Teaching, First Revised Edition, 1999. Federation of Animal Science Societies. Savoy, Ill.\nThe basal diet (no boron supplemented) was analysed and found to contain boron at the rate of 10 ppm which is typical for a corn-soybean meal based diet.\nAt the end of the study the pigs were transported to a laboratory where they were euthanized and necropsied. […]\nAt necropsy, samples of liver, heart, kidney, fat, skeletal muscle, proximal tibia, blood, and the rostral snout were retained and frozen at −40° C. prior to chemical analysis. All joints of the axial skeleton were evaluated for the presence of gross lesions of osteochondrosis and graded on a 5 point scale. […]\nMean joint lesion scores, growth rate and soundness scores by treatment and by factors boron and ascorbate were compared using an analysis of variance and t-test as appropriate. Soundness scores were dichotomised into binary categorical variables for lameness (soundness score>2) and for absence of defects (soundness<2), and the binary variables analysed by chi-square and logistic regression.\nTissue specimens stained with H&E were examined microscopically for the presence of lesions of osteochondrosis. […] Each tissue section was scored by a treatment-blind board-certified pathologist."}, "[2]": {"tested_on": "sows", "test": "Sow and litter trial in a commercial swine operation during a PRRSV outbreak", "assay_type": "in vivo, pig", "details": "sows given oral 1 mg boron per pound BW per day", "method": "To test the effect of boron on sows and their litters, a trial was established in a large commercial swine operation during an outbreak of porcine viral reproductive and respiratory disease (PRRSV). Boron was administered orally to a group of 51 sows individually housed in crates at the rate of 1 mg boron per pound BW per day beginning 1 week prior to farrowing and continuing until the piglets were weaned at 14 days of age. […] Boron treatment was supplied as a single daily dosing and was discontinued at weaning. All sows were fed a standard commercial sow diet."}, "[3]": {"assay_type": "in vivo", "details": "one pig of about 85 pounds kept on boron 50 ppm plus ascorbate 125 ppm", "method": "(§1) Boron was added to the diet of sows at 1 mg/kg body weight as boric acid. […] Among a group of 95 piglets the birth to weaning mortality was 2 piglets. The usual mortality for this farm was about 5 to 7%. These piglets remained on boron 50 ppm plus ascorbate 125 ppm. One pig was euthanized and examined at a weight of about 85 pounds. […] All bones of the appendicular skeleton were sectioned on the band saw."}, "[4]": {"tested_on": "crossbred pigs"}, "[5]": {"tested_on": "pigs", "test": "3-NPB with or without supplemental boron in pigs, lameness and joint lesions", "details": "for Clinical Lameness Score Normal, count of pigs / Clinical Lameness Score Visible Lameness, count of pigs: 5 pigs", "procedure": "The pigs were evaluated for lameness daily and euthanized on day 13 and the joints and other organs were examined."}, "[6]": {"tested_on": "sows", "test": "Preliminary pilot study, oral boron supplement to gestating and lactating sows", "details": "sows given oral 1 mg boron per kg body weight; first 600 pigs, preliminary analysis", "procedure": "(§2) Sows were fed a standard corn-soy diet. Half of the sows received an oral administration of a boron supplement to provide 1 mg boron per kg body weight."}, "[7]": {"tested_on": "sows", "test": "Observation in sows fed 50 ppm supplemental boron in late gestation and early lactation", "details": "sow diets with 50 ppm supplemental boron", "procedure": "as §2"}, "[8]": {"tested_on": "sows", "assay_type": "in vivo", "method": "as §1"}, "[9]": {"tested_on": "pigs", "details": "50 ppm boron as boric acid", "from_the_text": "An Iowa farm treated a group of about 100 pigs with 50 ppm boron as boric acid."}, "[10]": {"details": "50 ppm added B in diet, 28 days, 12 pens"}, "[11]": {"details": "supplemental boron 50 mg/kg vs 0, p<0.05"}, "[12]": {"details": "boron supplementation 50 ppm together with 3-NPB 1 gram daily × 10 days"}, "[13]": {"details": "boron supplementation 50 ppm, 3-NPB none"}}, "note": "Entries after “also recorded” stand apart in the source; their conditions may differ."}
{"compound": "[B]", "note": "[Boron]", "values": [{"measurement": "joint health compared with basal diet with no supplemental boron (FIG. 1)", "setting": "[1]; basal diet plus 25 mg/kg boron as sodium borate decahydrate (borax), with or without 250 mg/kg ascorbic acid", "value": "healthier joints"}, {"measurement": "incidence of osteochondrosis-associated lameness", "setting": "[1]; growing swine, 25 mg/kg boron as borax in feed", "value": "effective in reduction of the incidence of osteochondrosis-associated lameness"}, {"measurement": "occurrence of osteochondrosis (OC)", "setting": "[1]; pigs, supplemental boron 25 ppm to 50 ppm in feed, FIGS. 1, 3 and 4", "value": "reduction in the occurrence of osteochondrosis; also recorded: significant reduction in the occurrence of OC"}, {"measurement": "soundness scores / lameness associated with early rapid growth (FIG. 3)", "setting": "[1]; rapidly growing swine, 25 mg/kg boron as borax in feed, 25 mg/kg", "value": "useful in cartilage protection and prevention of lameness; also recorded: reduction of soundness scores associated with early growth"}, {"measurement": "effect on litter size at birth", "setting": "[2]", "value": "no effects"}, {"measurement": "effect on piglet birth weight", "setting": "[2]", "value": "no effects"}, {"measurement": "likelihood to conceive relative to control sows", "setting": "[2]", "value": 1.2, "unit": "times"}, {"measurement": "return to estrus, average days quicker than control sows", "setting": "[2]", "value": 1.6, "unit": "days"}, {"measurement": "piglet mortality", "setting": "[2]; from 1 week prior to farrowing until weaning", "value": 15.2, "unit": "%"}, {"measurement": "piglet weight at 12 days of age", "setting": "[2]; from 1 week prior to farrowing until weaning at 14 days", "value": 9.01, "unit": "lbs"}, {"measurement": "bone mineralization at necropsy", "setting": "[3]", "value": "excellent mineralization"}, {"measurement": "joint abnormalities at necropsy", "setting": "[3]", "value": "No abnormalities were observed in any of the joints"}, {"measurement": "Average daily gain (grams per day)", "setting": "[4]; [10]", "value": 549, "unit": "grams per day"}, {"measurement": "Avg. daily feed intake", "setting": "[4]; [10]", "value": 1270}, {"measurement": "Feed Conversion Ratio (feed/gain)", "setting": "[4]; [10]", "value": 2.32, "unit": "feed/gain"}, {"measurement": "reduction of phosphorus excretion per unit of production", "setting": "[4]; boron added to the diet, compared with no added boron", "value": 15, "unit": "%"}, {"measurement": "effect on average daily gain", "setting": "[4]; [11]", "value": "increased"}, {"measurement": "effect on fecal phosphorus excretion per unit of growth", "setting": "[4]; [11]", "value": "reduced"}, {"measurement": "effect on feed conversion ratio", "setting": "[4]; [11]", "value": "improved"}, {"measurement": "effect on phosphorus digestibility", "setting": "[4]; [11]", "value": "improved"}, {"measurement": "effect on daily feed intake", "setting": "[4]; supplemental boron 50 mg/kg vs 0, p>0.20", "value": "not significantly modified"}, {"measurement": "Clinical Lameness Score Normal, count of pigs", "setting": "[5]; [12]", "value": 4}, {"measurement": "Clinical Lameness Score Visible Lameness, count of pigs", "setting": "[5]; [12]", "value": 1}, {"measurement": "Clinical Lameness Score Normal, count of pigs", "setting": "[5]; [13]", "value": 5}, {"measurement": "Clinical Lameness Score Visible Lameness, count of pigs", "setting": "[5]; [13]", "value": 0}, {"measurement": "effect of supplemental boron in preventing the lameness induced by 3-NPB", "setting": "[5]; chi-square analysis", "value": "significant effect; also recorded: could be prevented"}, {"measurement": "pigs that developed lameness", "setting": "[5]; supplemental boron 50 ppm when 3-NPB was provided", "value": "one in 5"}, {"measurement": "prevalence and severity of osteochondrosis lesions in shoulder, stifle, hock and elbow joints", "setting": "[5]; supplemental boron, no 3-NPB", "value": "lowest prevalence of lesions and the lowest severity"}, {"measurement": "piglet weight at 12 days of age", "setting": "[6]", "value": 8.5, "unit": "pounds"}, {"measurement": "pre-weaning mortality", "setting": "[6]", "value": 16, "unit": "%"}, {"measurement": "piglet quality as assessed by uniformity, growth, and general thrift", "setting": "[7]", "value": "improved"}, {"measurement": "pre-weaning piglet mortality", "setting": "[7]", "value": "reduced"}]}
{"compound": "OB(O)O", "note": "[boric acid]", "values": [{"measurement": "birth to weaning mortality", "setting": "[8]; pig, in vivo", "value": 2, "unit": "piglets"}, {"measurement": "outcome of three noticeably and seriously lame sows", "setting": "[8]; sows, boron 1 mg/kg body weight as boric acid in diet", "value": "became perfectly sound"}, {"measurement": "growth rate", "setting": "[9]", "value": "excellent growth rate"}, {"measurement": "lameness/unsoundness rate in the test group", "setting": "[9]; estimated previous rate about 25 to 30%", "value": "zero"}, {"measurement": "pigs developing signs of lameness or unsoundness", "setting": "[9]; about 100 pigs", "value": "None"}]}
